The record followed here is patent US20200022964A1, “COMPOSITIONS AND METHODS FOR TREATMENT OF INFLAMMATORY AUTOIMMUNE DISEASES” (New York University, priority 2018, published 2020).

The subject of one assay is TNF-α. Kind of assay: qRT-PCR of TNF-α-induced IL-1β, IL-6 and Nos-2 mRNA in BMDMs. In kind it is cell-based, mice. As to conditions: TNF-α 10 ng/mL; FFD 1, 10 μM; TFD 0.1, 1 μM; 24 hours. As for the experimental part: (§1) Primary bone marrow derived macrophages (BMDMs) extraction. BMDMs were isolated from C57BL/6 and TNF-tg mice. After mice were sacrificed by cervical dislocation, the tibia and femur were isolated and both ends of the bones were cut to open the medullary cavity. Bone marrow cells were collected by centrifuge at 13000 g for 90 seconds and seeded in 6-well plates. Prior to their use in experiments, M-CSF (10 ng/ml, 576406, Biolegend) was added for 6 days to the BMDM culture medium.
qRT-PCR. Total RNA was extracted by RNeasy plus mini kit (74106, QIAGEN) and cDNA was synthesized using SuperScript® Reverse Transcriptase (M314C, promega Corporation). SYBR® Green PCR Master Mix (4309155, Applied Biosystems) was used to perform quantitative real-time PCR (qRT-PCR) and the reaction was performed on a StepOnePlus™ real-time PCR Systems (Applied Biosystems). The mRNA expression level of target genes was calculated by ΔΔCT and fold changes of mRNA levels were normalized to GAPDH.
In general terms: Quantitative PCR measures a nucleic acid by following its amplification.

The next assay deals with CD4+ T cells. Kind of assay: Spleen CD4+ T cell differentiation in vitro and splenic T cell composition in vivo. In kind it is cell-based, mice. On the procedure:
Spleen CD4^+T cell differentiation. Inducing spleen naive CD4^+T cell differentiation into T cell subsets was performed. Briefly, after preparing the splenic naïve CD4^+T cells from wild-type 8-12 week old C57BL/6 mice, the following cytokines were added to induce naive CD4^+T cell differentiation into T cell subsets: IL-2 (20 ng/mL), IL-12 (15 ng/mL), and anti-IL4 (5 μg/mL) for Thl; IL-2 (20 ng/mL), IL-4 (10 ng/mL), and anti-IFNγ (5 μg/mL) for Th2; IL-6 (20 ng/mL), TGFβ (3 ng/mL), anti-IFNγ (5 μg/mL), and anti-IL4 (5 μg/mL) for Th17; IL-2 (20 ng/mL), TGFβ (15 ng/mL), anti-IFNγ (5 μg/mL), and anti-IL4 (5 μg/mL) for Treg. […] Before collecting cells for fluorescence staining, 1 μL Golgi stop from Fixation/Permeabilization Solution Kit with BD GolgiPlug™ (555028,BD Biosciences) was added to each well and incubated in the plate for 4 hours. Cells were stained according to the kit specifications. For each T cell subtype, the combination of fluorescence dyes was as follows: FITC-CD4 (M1004502, Sungene) and Percp-cy5.5-IFNγ (45-7311-82, eBioscience) for Th1; FITC-CD4 and PE-IL4 (554389, BD pharmingen) for Th2; FITC-CD4 and PE-IL-17A (12-7177-81, eBioscience) for Th17; FITC-CD4, PE-CD25 (102008, Biolegend) and Alex-Fluo647-FoxP3 (51-5773-80, eBioscience) for Treg. Then the samples were analyzed at NYU core facilities using a FACS Calibur cell analyzer with CellQuest software. […] Frozen splenic tissue specimens from TNFα Tg mice treated with or without TFD or FFD were stained and analyzed dual immunofluorescence. All sections were permeabilized with 0.1% NP40 in PBS, and then blocked in 5% donkey serum for 30 min at RT, followed by incubated with anti-IFNg (Th1), anti-IL-4 (Th2), anti-IL17 (Th17) and anti-foxp3 (Treg) diluted in 5% donkey serum at 4° C. overnight. On the second day, after washed 3 times in PBS, the sections were incubated with Cy2-conjugated donkey anti-rat IgG for 30 min at RT. After wash, the sections were furthered stained with FITC conjugated anti-CD4 for I hour at RT. To determine the macrophage polarization, sections were double stained with anti-CD68 and iNOS (M1) or CD206 (M2). DAPI were used to stain the nuclei. The fluorescence intensity of cells was quantified by Image J software.

The subject of the next assay is TNF-tg mice. Kind of assay: hTNF-tg mouse model of inflammatory arthritis. The note with it: for serum levels of IL-1β and IL-6: compared with the control group; for clinical scores of arthritis: oral daily from 8 weeks of age, 13 weeks, FFD 10 mg/kg, TFD 50 mg/kg; for therapeutic effects (swelling score): treatment started at average score of approximately eight points, FFD 0.4, 2, 10 mg/kg, TFD 2, 10, 50 mg/kg oral, 8 weeks; for swelling score once the treatment resumed: treatment stopped at 17-week and resumed at 19-week time point.

Assay [1] relates to TNF-α/NF-κB signaling pathway. Put plainly: NF-κB beta-lactamase reporter gene assay in NF-κB-bla THP-1 cell line. Format: cell-based. As to conditions: THP-1 cells, drug overnight; for TNF-α-activated NF-κB reporter gene: then TNF-α 6 hours. As for the experimental part: In vitro and in vivo screen of FDA-approved drug library. NF-κB-bla THP-1 cell line in which NF-κB beta-lactamase reporter gene was stably integrated, RAW 264.7 macrophages in which NF-κB luciferase reporter gene was transiently transfected, and TNF-tg:NF-κB-Luc double mutant reporter mice were employed to screen the drug library. Screening FDA approved drugs in vitro. NF-κB-bla THP-1 cell line ([…], Invitrogen) was cultured in 96-well plates and FDA approved drugs (10 μM, L1300, Selleckchem) were added and cultured overnight. Next day, […] Loading Kit with CCF2-AM ([…], Invitrogen) was used to detect the β-lactamase activity via SpectraMax i3x system (5025027A Molecular Devices) with excitation wavelength at 409 nm and emission wavelengths at 520 nm or 470 nm. This process was performed in triplicate. Subsequently, the drugs from first screening that could inhibit TNF-α induced NF-κB activity underwent further screening by NF-κB luciferase assay. After transfection with NF-κB luciferase reporter gene and Renilla plasmids for 8 hours, cells were treated with drugs (10 μM) overnight, followed by TNF-α (10 ng/ml) stimulation for 6 hours, then bioluminescence was measured by Dual-Luciferase® Reporter Assay kit (E1910, Promega). The data were analyzed by Graphpad Prism software (GraphPad Software, San Diego, Calif.).

Assay [2] relates to TNFRs expressed on cell surface. Put plainly: Flow cytometry of biotin-labelled TNF-α binding to RAW264.7 cell surface. In kind it is cell-based. The note with it: RAW264.7 cells; FFD 10 μM, TFD 1 μM overnight. On the procedure: Flow cytometry. […] RAW 264.7 cells were seeded in a 12-well plate. […] Then the samples were analyzed at NYU core facilities using a FACS Calibur cell analyzer with CellQuest software.

In assay [3] the test system is TNF-α induced AA production. Put plainly: Arachidonic acid detection in BMDMs. Format: cell-based, mice. As to conditions: TNF-α 10 ng/mL, 48 hours. The source says: Arachidonic acid detection. […] The result was detected at 450nm by automatic plate reader (SpectraMax i3x system, 5025027A, Molecular Devices). ATK was implemented as a positive control.
A further assay has as its system TNF-α-induced genes. Put plainly: RNA-seq of TNF-α-treated BMDMs. In kind it is cell-based, mice. The note with it: TNF-α 10 ng/mL; FFD 10 μM, TFD 1 μM; 24 hours. On the procedure: as §1
RNAseq and Transcription factors enrichment analysis. […] Total RNA was extracted by RNeasy Mini Kit (74106, Qiagen), and gene expression profiling analyzed by RNA-seq was performed by the NYU Genome Technology Center for RNA sequencing (Illumina HiSeq4000 Sequencing, HiSeq 4000 Single Read 50 Cycle Lane).

Description for TNF-tg mice: Six mice in each group. Swelling scores were assessed weekly in accordance with the scoring system offered by the company. The swelling scores were taken as the sum of the scores from digits, paws, wrists and ankles with the highest possible score for each mouse at 24. The score system is: 20 digits (0=normal, 0.2=one or more swollen joints), 4 paws (0=normal, 1=noticeable swollen, 2=severe swollen), 2 wrists (0=normal, 1=noticeable swollen, 2=severe swollen), and 2 ankles (0=normal, 2=noticeable swollen, 4=severe swollen). At the end of treatment and observation, mice were sacrificed for collection of sera, spleens and ankles.

`CC(C)(C(=O)O)c1ccc(C(O)CCCN2CCC(C(O)(c3ccccc3)c3ccccc3)CC2)cc1` (stereo not shown) [fexofenadine]: the “TNF-α-induced mRNA expressions of IL-1β, IL-6 and Nos-2” value in the assay with TNF-α is on record as “dose-dependently inhibited”. In addition, in the assay with CD4+ T cells, the “differentiation of IFNγ-positive Th1 subpopulation” value is listed as “significantly suppressed”; the “differentiation of Th2, Th17 and regulatory T cells” value is “negligible effects”. In addition, the “clinical scores of arthritis, comparison with MTX” value in the assay with TNF-tg mice (prevention, FFD 10 mg/kg vs MTX 2 mg/kg oral daily) is listed as “more effective than MTX”. In the assay on TNF-tg mice (prevention), the “serum levels of IL-1β and IL-6” value was “significantly reduced”; the “clinical scores of arthritis” value was “significant reduction”. In the assay with TNF-tg mice, the “therapeutic effects (swelling score)” value was “effective therapeutic effects in a dose-dependent manner” and the “swelling score once the treatment resumed” value is “immediate reduction”. Also, in assay [1] (then AA 6 hours), the “AA activation of the NF-κB reporter gene” value is recorded as “did not constrain”. In assay [1], the “TNF-α-activated NF-κB reporter gene” value is recorded as “inhibited”. Further, the “TNF-α-activated NF-κB reporter gene” value in assay [1] (listed as FFD) was “inhibit”. In assay [2], the “binding of TNF-α to the cell surface” value is “did not affect”. Besides, the “TNF-α induced AA production” value in assay [3] is on record as “inhibited”. Besides, the “expression of TNF-α-induced genes (RNA-seq)” value in the assay on TNF-α-induced genes is on record as “clearly downregulated”.
In the case of `CC(C)(C)c1ccc(C(O)CCCN2CCC(C(O)(c3ccccc3)c3ccccc3)CC2)cc1` (stereo not shown) [terfenadine], the “TNF-α-induced mRNA expressions of IL-1β, IL-6 and Nos-2” value with TNF-α was “dose-dependently inhibited”. Further, in the assay on CD4+ T cells, the “differentiation of IFNγ-positive Th1 subpopulation” value is recorded as “significantly suppressed”; the “differentiation of Th2, Th17 and regulatory T cells” value is “negligible effects”. In the assay on TNF-tg mice (prevention), the “serum levels of IL-1β and IL-6” value was “significantly reduced”; the “clinical scores of arthritis” value was “significant reduction”. In the assay with TNF-tg mice, the “therapeutic effects (swelling score)” value is listed as “effective therapeutic effects in a dose-dependent manner” and the “swelling score once the treatment resumed” value was “immediate reduction”. In addition, in assay [1], the “TNF-α-activated NF-κB reporter gene” value is “inhibit”. Also, the “binding of TNF-α to the cell surface” value in assay [2] was “did not affect”. Further, the “TNF-α induced AA production” value in assay [3] was “inhibited”. Besides, the “expression of TNF-α-induced genes (RNA-seq)” value in the assay on TNF-α-induced genes is “clearly downregulated”.
